The values below come from patent publication US8802700B2 (Vertex Pharmaceuticals Incorporated, priority 2010, dated 2014).

In general, pEC50 refers to −log10 of the EC50, conventionally taken in molar units.

pEC50: −log10 of the molar value.

The first assay deals with T1, ΔF508-CFTR (Homo sapiens, UniProt P13569, DEL508-508).
T1 construct: expressed in transfected cells
T1 sequence (P13569 with tags, fused parts or gaps DEL508-508): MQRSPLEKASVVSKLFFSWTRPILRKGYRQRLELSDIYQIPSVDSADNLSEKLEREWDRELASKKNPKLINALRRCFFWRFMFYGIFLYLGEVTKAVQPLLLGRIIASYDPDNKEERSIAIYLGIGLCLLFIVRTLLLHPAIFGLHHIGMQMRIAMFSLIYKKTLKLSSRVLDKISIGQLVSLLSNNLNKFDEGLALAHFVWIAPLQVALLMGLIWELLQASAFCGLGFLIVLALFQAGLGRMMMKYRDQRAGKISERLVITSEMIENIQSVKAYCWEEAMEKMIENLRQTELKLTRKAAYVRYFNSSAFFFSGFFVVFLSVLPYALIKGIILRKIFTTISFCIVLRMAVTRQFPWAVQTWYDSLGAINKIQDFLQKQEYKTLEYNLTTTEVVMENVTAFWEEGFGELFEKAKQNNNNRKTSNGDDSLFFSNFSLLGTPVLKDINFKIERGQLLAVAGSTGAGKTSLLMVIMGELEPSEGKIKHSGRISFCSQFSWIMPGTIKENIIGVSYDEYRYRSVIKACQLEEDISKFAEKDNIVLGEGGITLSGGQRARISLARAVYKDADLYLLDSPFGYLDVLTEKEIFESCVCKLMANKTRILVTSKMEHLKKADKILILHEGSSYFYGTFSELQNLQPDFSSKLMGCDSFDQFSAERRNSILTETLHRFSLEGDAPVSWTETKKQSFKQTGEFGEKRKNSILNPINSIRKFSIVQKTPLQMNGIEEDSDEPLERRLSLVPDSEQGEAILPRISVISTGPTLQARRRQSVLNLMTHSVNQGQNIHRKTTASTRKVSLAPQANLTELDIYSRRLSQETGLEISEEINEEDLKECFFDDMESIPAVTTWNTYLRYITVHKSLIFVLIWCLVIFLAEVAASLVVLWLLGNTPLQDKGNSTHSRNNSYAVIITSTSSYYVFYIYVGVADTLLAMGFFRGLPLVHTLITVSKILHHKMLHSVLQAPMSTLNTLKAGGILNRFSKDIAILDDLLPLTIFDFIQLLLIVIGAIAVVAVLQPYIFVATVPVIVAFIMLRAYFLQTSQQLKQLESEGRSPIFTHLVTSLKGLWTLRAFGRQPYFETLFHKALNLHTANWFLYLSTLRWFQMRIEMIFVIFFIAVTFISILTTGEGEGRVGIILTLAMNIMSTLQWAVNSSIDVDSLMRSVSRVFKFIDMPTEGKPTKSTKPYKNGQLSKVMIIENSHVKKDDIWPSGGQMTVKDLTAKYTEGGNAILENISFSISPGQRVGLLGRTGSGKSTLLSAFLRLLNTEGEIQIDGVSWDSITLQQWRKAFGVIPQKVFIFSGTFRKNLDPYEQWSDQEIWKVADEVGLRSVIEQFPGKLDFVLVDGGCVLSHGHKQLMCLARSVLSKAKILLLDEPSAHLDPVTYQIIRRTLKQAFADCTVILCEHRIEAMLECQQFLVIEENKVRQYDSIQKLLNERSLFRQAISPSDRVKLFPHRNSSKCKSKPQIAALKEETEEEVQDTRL
The assay is described as follows: Membrane potential optical assay (FRET voltage-sensor dyes, VIPR), identification of potentiator compounds. Format: cell-based. The conditions noted are these: Table 3; assay not given. The text has this:
The optical membrane potential assay utilized voltage-sensitive FRET sensors described by Gonzalez and Tsien (See Gonzalez, J. E. and R. Y. Tsien (1995) “Voltage sensing by fluorescence resonance energy transfer in single cells” Biophys J 69(4): 1272-80, and Gonzalez, J. E. and R. Y. Tsien (1997) “Improved indicators of cell membrane potential that use fluorescence resonance energy transfer” Chem Biol 4(4): 269-77) in combination with instrumentation for measuring fluorescence changes such as the Voltage/Ion Probe Reader (VIPR) (See […]. Oades, et al. (1999) “Cell-based assays and instrumentation for screening ion-channel targets” Drug Discov Today 4(9): 431-439). These voltage sensitive assays are based on the change in fluorescence resonant energy transfer (FRET) between the membrane-soluble, voltage-sensitive dye, DiSBAC2(3), and a fluorescent phospholipid, CC2-DMPE, which is attached to the outer leaflet of the plasma membrane and acts as a FRET donor. Changes in membrane potential (Vm) cause the negatively charged DiSBAC2(3) to redistribute across the plasma membrane and the amount of energy transfer from CC2-DMPE changes accordingly. The changes in fluorescence emission were monitored using VIPRTM II, which is an integrated liquid handler and fluorescent detector designed to conduct cell-based screens in 96- or 384-well microtiter plates. To identify potentiators of ΔF508-CFTR, a double-addition HTS assay format was developed. During the first addition, a Cl^--free medium with or without test compound was added to each well. […] (in mM) NaCl 160, KCl 4.5, CaCl2 2, MgCl2 1, HEPES 10, pH 7.4 with NaOH. • Chloride-free bath solution: Chloride salts in Bath Solution #1 are substituted with gluconate salts. • CC2-DMPE: Prepared as a 10 mM stock solution in DMSO and stored at -20° C. • DiSBAC2(3): Prepared as a 10 mM stock in DMSO and stored at -20° C. NIH3T3 mouse fibroblasts stably expressing ΔF508-CFTR are used for optical measurements of membrane potential. […] For all optical assays, the cells were seeded at 30,000/well in 384-well matrigel-coated plates and cultured for 2 hrs at 37° C. before culturing at 27° C. for 24 hrs. for the potentiator assay.
As to `O=C(Nc1ccccc1-c1cc(F)cc(F)c1)c1c[nH]c2ccccc2c1=O` [Compound 138, N-[2-(3,5-difluorophenyl)phenyl]-4-oxo-1H-quinoline-3-carboxamide], the pEC50 is greater than 5.00.
Still for that read-out and setting: the same measure for `CC(C)(C)c1cc(C(C)(C)C)c(NC(=O)c2c[nH]c3ccc(C(F)(F)F)cc3c2=O)cc1O` [Compound 515, N-(5-hydroxy-2,4-ditert-butyl-phenyl)-4-oxo-6-(trifluoromethyl)-1H-quinoline-3-carboxamide]: 4.60 to 5.00.
On the same count and under the same terms, the result for `CSc1ccccc1-c1ccccc1NC(=O)c1c[nH]c2ccccc2c1=O` [Compound 279, N-[2-(2-methylsulfanylphenyl)phenyl]-4-oxo-1H-quinoline-3-carboxamide] reads greater than 5.00; that for `COc1ccccc1-c1cc2cc[nH]c2cc1NC(=O)c1c[nH]c2ccccc2c1=O` [Compound 237, N-[5-(2-methoxyphenyl)-1H-indol-6-yl]-4-oxo-1H-quinoline-3-carboxamide], greater than 5.00.

The same assay, now with this note: Table 3; assay not given; read-out: % Activity (% Efficacy, relative efficacy).
For `Cc1ccc(-c2ccccc2)cc1NC(=O)c1c[nH]c2ccccc2c1=O` [Compound 454, N-(2-methyl-5-phenyl-phenyl)-4-oxo-1H-quinoline-3-carboxamide], the Emax was less than 25%.
Regarding `O=C(Nc1ccc2c(c1)NCCC2)c1c[nH]c2ccccc2c1=O` [Compound 299, 4-Oxo-N-(1,2,3,4-tetrahydroquinolin-7-yl)-1H-quinoline-3-carboxamide], the Emax was 25 to 100%.
The same measure, in the same setting: the same measure for `O=C(Nc1cccc2nsnc12)c1c[nH]c2ccccc2c1=O` [Compound 54, 4-oxo-N-(8-thia-7,9-diazabicyclo[4.3.0]nona-2,4,6,9-tetraen-5-yl)-1H-quinoline-3-carboxamide]: less than 25%; for `CC(C)(C)CC(=O)Nc1ccc(C(C)(C)C)c(NC(=O)c2c[nH]c3ccccc3c2=O)c1` [Compound 196, N-[5-(3,3-dimethylbutanoylamino)-2-tert-butyl-phenyl]-4-oxo-1H-quinoline-3-carboxamide]: 25 to 100%.
For `O=C(Nc1ccc2cn[nH]c2c1)c1c[nH]c2ccccc2c1=O` [Compound 284, N-(1H-indazol-6-yl)-4-oxo-1H-quinoline-3-carboxamide], the Emax was in the range of 25 to 100%.
Still for that read-out and setting: the same measure for `O=C(Nc1ccccc1-c1cc(F)cc(F)c1)c1c[nH]c2ccccc2c1=O` [Compound 138, N-[2-(3,5-difluorophenyl)phenyl]-4-oxo-1H-quinoline-3-carboxamide]: 25 to 100%; for `O=C(Nc1c(Cl)cccc1Cl)c1c[nH]c2ccccc2c1=O` [Compound 317, N-(2,6-dichlorophenyl)-4-oxo-1H-quinoline-3-carboxamide]: 25 to 100%.
On the same count and under the same terms, the result for `CC(C)(C)c1cc(C(C)(C)C)c(NC(=O)c2c[nH]c3ccc(C(F)(F)F)cc3c2=O)cc1O` [Compound 515, N-(5-hydroxy-2,4-ditert-butyl-phenyl)-4-oxo-6-(trifluoromethyl)-1H-quinoline-3-carboxamide] reads less than 25%; that for `CCCc1ccc(NC)cc1NC(=O)c1c[nH]c2ccccc2c1=O` [Compound 356, N-(5-methylamino-2-propyl-phenyl)-4-oxo-1H-quinoline-3-carboxamide], 25 to 100%; that for `CCOc1cc(NC(=O)c2c[nH]c3ccccc3c2=O)c(OCC)cc1NC(=O)c1ccccc1` [Compound 7, N-(4-benzoylamino-2,5-diethoxy-phenyl)-4-oxo-1H-quinoline-3-carboxamide], less than 25%.
For `COc1ccc2[nH]cc(C(=O)Nc3ccc(N4CCC[C@@H]4C)cc3C(F)(F)F)c(=O)c2c1` [Compound 601, (S)-6-methoxy-N-(4-(2-methylpyrrolidin-1-yl)-2-(trifluoromethyl)phenyl)-4-oxo-1,4-dihydroquinoline-3-carboxamide], the Emax was in the range of 25 to 100%.
As to `CC(C)(C)c1cc2cc[nH]c2cc1NC(=O)c1c[nH]c2cc(OC(F)(F)F)ccc2c1=O` [Compound 632, 4-oxo-N-(5-tert-butyl-1H-indol-6-yl)-7-(trifluoromethoxy)-1H-quinoline-3-carboxamide], the Emax lay within 25 to 100%.
The same measure, in the same setting: the same measure for `N#Cc1c(Cl)cccc1NC(=O)c1c[nH]c2ccccc2c1=O` [Compound 222, N-(3-chloro-2-cyano-phenyl)-4-oxo-1H-quinoline-3-carboxamide]: 25 to 100%.
Turning to `Cc1cccc2[nH]cc(C(=O)Nc3ccc(N4CCC[C@@H]4C)nc3C(F)(F)F)c(=O)c12` [Compound 581, (S)-5-methyl-N-(6-(2-methylpyrrolidin-1-yl)-2-(trifluoromethyl)pyridin-3-yl)-4-oxo-1,4-dihydroquinoline-3-carboxamide], the Emax lay in the range of 25 to 100%.
The same measure, in the same setting: the result for `Cc1ccc(NC(=O)c2c[nH]c3ccccc3c2=O)cc1N` [Compound 167, N-(3-amino-4-methyl-phenyl)-4-oxo-1H-quinoline-3-carboxamide] reads 25 to 100%.
For `CC(C)(C)c1cc(C(C)(C)C)c(NC(=O)c2c[nH]c3c(C(F)(F)F)cccc3c2=O)cc1O` [Compound 580, N-(5-hydroxy-2,4-ditert-butyl-phenyl)-4-oxo-8-(trifluoromethyl)-1H-quinoline-3-carboxamide], the Emax was less than 25%.
On to `CSc1ccccc1-c1ccccc1NC(=O)c1c[nH]c2ccccc2c1=O` [Compound 279, N-[2-(2-methylsulfanylphenyl)phenyl]-4-oxo-1H-quinoline-3-carboxamide], for which the Emax lay within 25 to 100%.
The same measure, in the same setting: the same measure for `Cc1cccc2c(=O)c(C(=O)Nc3cc(O)c(C(C)(C)C)cc3C(C)(C)C)c[nH]c12` [Compound 621, N-(5-hydroxy-2,4-ditert-butyl-phenyl)-8-methyl-4-oxo-1H-quinoline-3-carboxamide]: less than 25%; for `CN(c1ccc(F)cc1)S(=O)(=O)c1ccc2[nH]cc(C(=O)Nc3cc4[nH]ccc4cc3C(C)(C)C)c(=O)c2c1` [Compound 406, 6-[(4-fluorophenyl)-methyl-sulfamoyl]-4-oxo-N-(5-tert-butyl-1H-indol-6-yl)-1H-quinoline-3-carboxamide]: 25 to 100%; for `O=C(Nc1cccc2c1Cc1ccccc1-2)c1c[nH]c2ccccc2c1=O` [Compound 18, N-(9H-fluoren-1-yl)-4-oxo-1H-quinoline-3-carboxamide]: 25 to 100%.
Turning to `O=C(Nc1ccc2cc[nH]c2c1)c1c[nH]c2ccccc2c1=O` [Compound 33, N-(1H-indol-6-yl)-4-oxo-1H-quinoline-3-carboxamide], the Emax was in the range of 25 to 100%.
Take `O=C(Nc1ccc(N2CC[C@@H](O)C2)cc1C(F)(F)F)c1c[nH]c2ccccc2c1=O` [Compound 705, (R)-N-(4-(3-hydroxypyrrolidin-1-yl)-2-(trifluoromethyl)phenyl)-4-oxo-1,4-dihydroquinoline-3-carboxamide]: the Emax lay within 25 to 100%.
With `CC(C)(C)OC(=O)N1CCC2(CCNc3cc(NC(=O)c4c[nH]c5ccccc5c4=O)ccc32)CC1` [Compound 238, 7′-[(4-oxo-1H-quinolin-3-ylcarbonyl)amino]-spiro[piperidine-4,4′(1′H)-quinoline], 2′,3′-dihydro-carboxylic acid tert-butyl ester], the Emax lay within 25 to 100%.
Same read-out and setting: the same measure for `O=C(Nc1ccccc1-c1cc(Cl)cc(Cl)c1)c1c[nH]c2ccccc2c1=O` [Compound 367, N-[2-(3,5-dichlorophenyl)phenyl]-4-oxo-1H-quinoline-3-carboxamide]: 25 to 100%; for `COc1ccccc1-c1cc2cc[nH]c2cc1NC(=O)c1c[nH]c2ccccc2c1=O` [Compound 237, N-[5-(2-methoxyphenyl)-1H-indol-6-yl]-4-oxo-1H-quinoline-3-carboxamide]: 25 to 100%; for `CCc1cccc2c(=O)c(C(=O)Nc3ccc(C(C)C)cc3C(F)(F)F)c[nH]c12` [Compound 682, 8-ethyl-N-[4-isopropyl-2-(trifluoromethyl)phenyl]-4-oxo-1H-quinoline-3-carboxamide]: less than 25%.
Still for that read-out and setting: the result for `CC1(c2ccc(NC(=O)c3c[nH]c4cccc(O)c4c3=O)cc2)COC1` [Compound 529, 5-hydroxy-N-[4-(3-methyloxetan-3-yl)phenyl]-4-oxo-1H-quinoline-3-carboxamide] reads 25 to 100%.
For the compound `O=C(Nc1ccc(OC(F)(F)F)c(N2CCCCC2)c1)c1c[nH]c2ccccc2c1=O` [Compound 696, 4-oxo-N-[3-(1-piperidyl)-4-(trifluoromethoxy)phenyl]-1H-quinoline-3-carboxamide], the Emax is 25 to 100%.
Still for that read-out and setting: the same measure for `C=Cc1ccc(NC(=O)c2c[nH]c3ccccc3c2=O)cc1` [Compound 452, 4-oxo-N-(4-vinylphenyl)-1H-quinoline-3-carboxamide]: 25 to 100%; for `COc1nc2ccccc2c(OC)c1C(=O)Nc1cc(NC(=O)OC(C)(C)C)ccc1C(C)(C)C` [Compound 39, [3-[(2,4-dimethoxy-3-quinolyl)carbonylamino]-4-tert-butyl-phenyl]aminoformic acid tert-butyl ester]: 25 to 100%.
The same measure, in the same setting: the same measure for `Nc1nc2ccc(NC(=O)c3c[nH]c4ccccc4c3=O)cc2s1` [Compound 671, N-(2-aminobenzothiazol-6-yl)-4-oxo-1H-quinoline-3-carboxamide]: 25 to 100%.
Same read-out and setting: the result for `O=C(Nc1ccccc1-c1ccc(C(F)(F)F)cc1)c1c[nH]c2ccccc2c1=O` [Compound 366, 4-oxo-N-[2-[4-(trifluoromethyl)phenyl]phenyl]-1H-quinoline-3-carboxamide] reads 25 to 100%; that for `CCCc1ccc(NC(=O)c2c[nH]c3ccccc3c2=O)cc1NS(C)(=O)=O` [Compound 340, N-(3-methylsulfonylamino-4-propyl-phenyl)-4-oxo-1H-quinoline-3-carboxamide], 25 to 100%.
